Residues, ends and D or L forms follow the SMILES beside them.
Tests used:
mitochondrial aconitase = target: T1, mitochondrial aconitase (Homo sapiens, UniProt Q99798); assay: Enzymatic activity of mitochondrial aconitase in the mitochondrial fraction of fibroblasts, Bioxytech Aconitase-340 kit; format: cell-based; details: concentration printed as 0.05 ppm
T1 construct: endogenous in cells; host or cells: normal human fibroblasts, mitochondrial fraction (10,000 g pellet)
T1 sequence (Q99798 28-780): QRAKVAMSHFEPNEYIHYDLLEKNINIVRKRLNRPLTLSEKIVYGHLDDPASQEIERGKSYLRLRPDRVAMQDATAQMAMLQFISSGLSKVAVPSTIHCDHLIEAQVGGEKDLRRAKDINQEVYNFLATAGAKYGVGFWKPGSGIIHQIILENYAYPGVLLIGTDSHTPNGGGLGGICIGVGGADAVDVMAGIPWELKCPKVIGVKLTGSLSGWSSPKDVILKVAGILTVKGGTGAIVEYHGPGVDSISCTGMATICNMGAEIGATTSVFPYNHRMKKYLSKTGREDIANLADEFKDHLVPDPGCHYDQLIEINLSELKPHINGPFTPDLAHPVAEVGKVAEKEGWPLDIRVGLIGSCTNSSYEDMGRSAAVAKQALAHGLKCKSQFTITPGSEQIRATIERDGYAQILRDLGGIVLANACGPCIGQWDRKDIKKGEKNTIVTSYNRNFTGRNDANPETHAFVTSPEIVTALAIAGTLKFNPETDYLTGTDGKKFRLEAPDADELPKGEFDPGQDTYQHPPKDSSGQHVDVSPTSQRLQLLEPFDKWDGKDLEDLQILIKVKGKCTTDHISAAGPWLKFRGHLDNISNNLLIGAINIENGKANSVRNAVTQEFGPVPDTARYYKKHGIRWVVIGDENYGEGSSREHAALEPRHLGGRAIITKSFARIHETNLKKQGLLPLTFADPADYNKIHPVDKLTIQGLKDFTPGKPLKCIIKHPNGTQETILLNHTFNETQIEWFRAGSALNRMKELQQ
Procedure: (§1) The aim of this study was to determine the effect of the SEQ ID No. 2 peptide on the enzymatic activity of aconitase. For this, the total enzymatic activity (cytoplasmic and mitochondrial) and the mitochondrial enzymatic activity of aconitase were measured.
[…] After irradiation, the cells were treated under the same conditions for another 24 hr. Negative controls were achieved under the same conditions, but in the absence of the SEQ ID No. 2 peptide.
To evaluate the enzymatic activity of aconitase, the fibroblasts were then collected and centrifuged in PBS buffer. A portion of the cells was then processed to measure total enzymatic activity; another portion was used to isolate the mitochondrial fraction according to the following protocol. […]
(§2) The measurement of the enzymatic activity of aconitase was made using the Oxis Bioxytech Aconitase-340 assay kit (Oxis International), according to the following principle: aconitase causes isomerization of the citrate to isocitrate. […] It is the formation of NADPH that is quantified spectrophotometrically at 340 nm. Under the experimental conditions chosen, the rate of NADPH formation is proportional to the quantity of aconitase. The analysis of the kinetics of NADPH appearance enables the concentration of aconitase in the sample to be calculated (in mU/ml)

human dermal fibroblasts = format: cell-based; details: 48 h, 0.5 ppm
Procedure: The aim of this study was to determine the protective effect of the SEQ ID No. 2 peptide with respect to dermal fibroblasts subjected to an oxidative stress caused by oxygenated water (H2O2) in a concentration of 4 mM or 5 mM. For this, cellular viability tests were performed using the MTT technique. Protocol: Human dermal fibroblasts were treated with a 1% solution of a 50-ppm SEQ ID No. 2 peptide for 24 hours, subjected to an oxidative stress caused by 4 mM or 5 mM of H2O2 for 30 minutes, and then cultivated for another 24 hours in the presence of the same concentration of SEQ ID No. 2 peptide. Controls treated with neither the peptide nor H2O2 and controls treated with the peptide alone were achieved under the same conditions. At the end of the experiment, the cells were incubated in a solution containing 0.1 mg/ml of MTT (3-[4,5-dimethylthiazole-2-yl]-2,5-diphenyltetrazolium bromide) according to the protocol described in example 3

aconitase = assay: Total (cytoplasmic and mitochondrial) enzymatic activity of aconitase in fibroblasts, Bioxytech Aconitase-340 kit; format: cell-based, human
Procedure: as §1
Protocol: Normal human fibroblasts were treated with a 1% solution of a 50-ppm SEQ ID No. 2 peptide representative of the peptide family according to the invention, for 48 hr, and were then subjected to UVB radiation of 100 mJ/cm^2. After irradiation, the cells were treated under the same conditions for another 24 hr. Negative controls were achieved under the same conditions, but in the absence of the SEQ ID No. 2 peptide.
To evaluate the enzymatic activity of aconitase, the fibroblasts were then collected and centrifuged in PBS buffer. […]
as §2

[1] = test system: primary human fibroblasts; assay: Comet test (single-cell gel electrophoresis), DNA damage after UVB irradiation; format: cell-based; details: UVB 100 mJ/cm^2, 0.5 ppm peptide
Procedure: A study of the cytoprotective effect of SEQ ID No. 2 peptide was made by evaluating the damage caused at the DNA level. This study was done using the comet (or single-cell gel electrophoresis) test, a quick and sensitive micro-electrophoretic technique that enables breaks in the DNA to be visualized and quantified in individual cells.
Protocol: Primary human fibroblasts were seeded in […] dishes. When the cells reached 70% coalescence, they were treated with SEQ ID No. 2 peptide diluted to 1% (starting from a 50-ppm solution) for 24 hours. The cells were then subjected to UVB irradiation at 100 mJ/cm^2, then cultivated in the presence of the peptide for another 24 hours. The dishes not treated with the peptide served as controls. A cellular suspension of 100,000 cells/ml was then achieved, 500 μl were removed, inserted into an agarose solution, and run between slide and cover glass. The cells were lysed in the cold. The DNA was then denatured with an alkaline buffer and subjected to a brief electrophoresis (250 mA for 30 minutes), and stained with propidium iodate. The slides were then observed under a fluorescence microscope. An altered cell sees its DNA stretch toward the anode in proportion to the number of breaks present in the DNA, and it forms a “comet”. The highly degraded DNA is found in the “tail” of the comet. An intact cell remains round, and its DNA is then packed into the area of the comet “head”.
The evaluation of DNA breaks was done using image-analyzer software that enables the percentage of DNA degradation to be determined, by means of a quantitative evaluation of the “tail moment”, a parameter defined as the product of the length of the comet by the percentage of DNA in its distal portion.

[2] = test system: normal human keratinocytes; assay: Ultrastructure of mitochondria by electron microscopy; format: cell-based; details: 1% solution of a 50-ppm mother-solution for 72 hours
Procedure: The aim of this study was to determine the action of the SEQ ID No. 2 peptide on mitochondria, by observing the ultrastructures with the electron microscope.
Protocol: Normal human keratinocytes were treated with a 1% solution of a 50-ppm mother-solution of SEQ ID No. 2 peptide for 72 hours. Negative controls were achieved under the same conditions, but in the absence of the said peptide.
The cells were then fixed using Karnovsky's fixative (20 ml of 16% paraformaldehyde/8 ml of 50% glutaraldehyde/25 ml of 0.2 M sodium phosphate buffer/25 ml of water) for 1 hr at ambient temperature, and then left overnight at 4° C. The culture media were scraped into the Karnovsky's fixative and then the cells were centrifuged for 5 minutes at 5000 rpm. The supernatant was isolated and the pellet resuspended in 1 ml of 0.1 M cacodylate. The samples were then kept at 4° C. until their processing for electron microscopy observation.

dermal fibroblasts = assay: Intracellular ATP synthesis, ATP Bioluminescence Assay Kit HS II; format: cell-based; details: 1% solution of a 50-ppm peptide solution
Procedure: The aim of this study was to determine the effect of the SEQ ID No. 1 peptide on mitochondrial activity. It is the ATP produced by the mitochondria that serves as a biochemical marker for this activity.
Protocol: This study was conducted using an ATP Bioluminescence Assay Kit HS II (Roche Applied Science). Dermal fibroblasts were treated with a 1% solution of a 50-ppm solution containing the SEQ ID No. 1 peptide, representative of the peptide family according to the invention, for a period of 1 to 3 hours. At the end of the incubation time, the tubes were emptied of their medium and rinsed with 2 ml of cold PBS before adding 250 μl of a lysing buffer provided in the kit. The cells of each tube were then scraped up and collected in 14-ml tubes. Each tube was rinsed with 2×500 μl of cold PBS, and the whole was collected again in the respective tubes. […] The ATP measurement was performed on these samples: 50 μl of this dilution was placed in a Luma cuvette and 50 μl of […] was added. After 10 seconds, the luminescence reading was begun. The values were standardized relative to the quantity of proteins for each sample. The measurements were made using the Biocounter M2010A Luma®/3M equipment.

In the case of `CC[C@H](C)[C@H](NC(=O)[C@H](CS)NC(=O)[C@@H](N)CO)C(=O)N[C@@H](CC(N)=O)C(=O)N[C@H](C(N)=O)[C@@H](C)O` [SEQ ID No. 2, Ser-Cys-Ile-Asn-Thr-NH2] (H-SCINT-NH2; N-terminus assumed), the “enzymatic activity of mitochondrial aconitase” value (mitochondrial aconitase) is reported as “strongly stimulates”, the “% viability” value (human dermal fibroblasts) is reported as 121.13% and the “increase in total enzymatic activity of aconitase compared with untreated control cells” value (aconitase; not irradiated, 1% solution of a 50-ppm peptide, n=5) is reported as 56.3%. For the same compound, the “reduction of "tail moment" (DNA damage)” value ([1]; versus UVB control) was 25%, the “Measurement of "tail moment"” value ([1]; UVB control 106,563) was 80,221 and the “% of "tail moment" relative to UV control” value ([1]; UVB control = 100) was 75%. For the same compound, the “ultrastructural characteristics of the organelles” value [2] was “ultrastructural characteristics suggesting an increase in metabolic activity”.

“Ser-Cys-Ile-Asn-Ser (SCINS) [SEQ ID No. 5]” was tested, and the “total enzymatic activity of aconitase after UVB irradiation” value (aconitase; UVB 100 mJ/cm^2, peptide treatment before (48 hr) and after (24 hr) irradiation) was “enabled the observed reduction to be limited”.

“Ser-Cys-Ile-Asn-Thr (SCINT) [SEQ ID No. 1]” was tested, and the “amount of intracellular ATP compared to the untreated cells” value (dermal fibroblasts; after 3 hours) was “clear increase” and the “increase in the amount of intracellular ATP compared to the untreated cells” value (dermal fibroblasts; after one hour) was 43%.
